The term Ki denotes the dissociation constant of the complex between target and ligand, obtained from inhibition or displacement. A low value points to tighter binding.

Molecules are shown by their SMILES. Structures can show the parent of a compound that is named as a salt.

Chain of BoNT/A LC1-429 (P0DPI1 1-429, added parts left off): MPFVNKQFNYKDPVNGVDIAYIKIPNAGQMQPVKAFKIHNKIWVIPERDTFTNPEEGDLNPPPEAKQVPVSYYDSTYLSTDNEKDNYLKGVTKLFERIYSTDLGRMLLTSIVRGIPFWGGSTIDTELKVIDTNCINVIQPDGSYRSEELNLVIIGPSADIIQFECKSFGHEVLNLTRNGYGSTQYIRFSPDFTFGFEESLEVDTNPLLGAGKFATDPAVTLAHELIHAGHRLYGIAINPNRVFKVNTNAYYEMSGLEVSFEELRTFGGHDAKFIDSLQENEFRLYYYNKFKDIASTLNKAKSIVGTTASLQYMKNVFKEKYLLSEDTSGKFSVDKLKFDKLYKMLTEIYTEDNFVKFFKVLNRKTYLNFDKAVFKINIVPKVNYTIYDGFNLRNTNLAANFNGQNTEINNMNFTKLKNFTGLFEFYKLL

The experiment addresses BoNT/A LC1-429 (Clostridium botulinum, UniProt P0DPI1). Description: biochemical. Particulars: BoNT/A Ki (nM).
In turn, `CO[C@H](CC(=O)NO)[C@H](Cc1ccc(Cl)cc1C)c1ccc(CN2CCOCC2)cc1F` [Example 6-8, (3R,4R)-5-(4-chloro-2-methylphenyl)-4-(2-fluoro-4-(morpholinomethyl)phenyl)-N-hydroxy-3-methoxypentanamide] returned a Ki of 45.8 nM.
Under `CO[C@H](CC(=O)NO)[C@H](Cc1ccc(Cl)cc1)c1cc(F)c(F)c(F)c1` [Example 5-5, (3R,4R)-5-(4-chlorophenyl)-N-hydroxy-3-methoxy-4-(3,4,5-trifluorophenyl)pentanamide] stands 5.36 nM.
Regarding `O=C(C[C@@H](OCCCO)[C@H](Cc1ccc(Cl)cc1)c1ccc(F)cc1F)NO` [Example 6-19, (3R,4R)-5-(4-chlorophenyl)-4-(2,4-difluorophenyl)-N-hydroxy-3-(3-hydroxypropoxy)pentanamide], the affinity corresponds to a Ki of 1.45 nM. Compared with the last compound, the Ki is about 3.7-fold lower.
The result for `CCO[C@H](CC(=O)NO)[C@H](Cc1ccc(Cl)cc1)c1ccc(-c2c(C)nn(C)c2C)cc1` [Example 3-28, (3R,4R)-5-(4-chlorophenyl)-3-ethoxy-N-hydroxy-4-(4-(1,3,5-trimethyl-1H-pyrazol-4-yl)phenyl)pentanamide] reads 3.7 nM.
`CCO[C@H](CC(=O)NO)[C@H](Cc1ccc(Cl)cc1)c1ccc(C(=O)NO)cc1` [Example 4-1, 4-((2R,3R)-1-(4-chlorophenyl)-3-ethoxy-5-(hydroxyamino)-5-oxopentan-2-yl)-N-hydroxybenzamide] registered a Ki of 10.5 nM. Against the preceding compound, the Ki is about 2.8-fold higher.
The result for `CO[C@H](CC(=O)NO)[C@H](Cc1ccc(Cl)cc1)c1ccc(CN2CCCCC2)cc1` [Example 3-20, (3R,4R)-5-(4-chlorophenyl)-N-hydroxy-3-methoxy-4-(4-(piperidin-1-ylmethyl)phenyl)pentanamide] reads 37 nM; that for `CO[C@H](CC(=O)NO)[C@H](Cc1ccc(Cl)cc1)c1cc(F)c(F)c(F)c1F` [Example 5-6, (3R,4R)-5-(4-chlorophenyl)-N-hydroxy-3-methoxy-4-(2,3,4,5-tetrafluorophenyl)pentanamide], 4.95 nM.
The result for `CO[C@H](CC(=O)NO)[C@H](Cc1ccc(Cl)cc1)c1ccc(F)cc1F` [Example 5-4, (3R,4R)-5-(4-chlorophenyl)-4-(2,4-difluorophenyl)-N-hydroxy-3-methoxypentanamide] reads 3.95 nM.
`CO[C@H](CC(=O)NO)[C@H](Cc1ccc(Cl)cc1C)c1ccc(F)cc1` [Example 6-5, (3R,4R)-5-(4-chloro-2-methylphenyl)-4-(4-fluorophenyl)-N-hydroxy-3-methoxypentanamide potassium salt] gave an inhibition constant Ki of 3.88 nM.
Under `CCO[C@H](CC(=O)NO)[C@H](Cc1ccc(Cl)cc1)c1ccc(N2CCOCC2)cc1` [Example 3-23, (3R,4R)-5-(4-chlorophenyl)-3-ethoxy-N-hydroxy-4-(4-morpholinophenyl)pentanamide] stands 10 nM.
Under `CCO[C@H](CC(=O)NO)[C@H](Cc1ccc(Cl)cc1)c1ccc(COCOCCOC)cc1` [Example 3-15] stands 30 nM; under `CCO[C@H](CC(=O)NO)[C@H](Cc1ccc(Cl)cc1)c1ccc(CO)cc1` [Example 3-10, (3R,4R)-5-(4-chlorophenyl)-3-ethoxy-N-hydroxy-4-(4-(hydroxymethyl)phenyl)pentanamide], 2.7 nM; under `CCO[C@H](CC(=O)NO)[C@H](Cc1ccc(Cl)cc1)c1ccc(-c2cnc(N(C)C)nc2)cc1` [Example 3-27, (3R,4R)-5-(4-chlorophenyl)-4-(4-(2-(dimethylamino)pyrimidin-5-yl)phenyl)-3-ethoxy-N-hydroxypentanamide], 5.3 nM.
The result for `C=Cc1ccc([C@@H](Cc2ccc(Cl)cc2)[C@@H](CC(=O)NO)OCC)cc1` [Example 3-9, (3R,4R)-5-(4-chlorophenyl)-3-ethoxy-N-hydroxy-4-(4-vinylphenyl)pentanamide] reads 3.2 nM.
`CO[C@@H](CC(=O)NO)[C@H](Cc1ccc(F)cc1C)c1ccc(Br)cc1` [Example 2-3, (3S,4R)-4-(4-bromophenyl)-5-(4-fluoro-2-methylphenyl)-N-hydroxy-3-methoxypentanamide]: affinity was put at a Ki of 4860 nM. Against the preceding compound, the Ki is about 1500-fold higher.
Compound `CCO[C@H](CC(=O)NO)[C@H](Cc1ccc(Cl)cc1)c1ccc(C(=O)N2CCN(C(=O)OC(C)(C)C)CC2)cc1` [Example 4-8, tert-butyl 4-(4-((2R,3R)-1-(4-chlorophenyl)-3-ethoxy-5-(hydroxyamino)-5-oxopentan-2-yl)benzoyl)piperazine-1-carboxylate] had a Ki of 22 nM.
Under `CO[C@H](CC(=O)NO)[C@H](Cc1ccc(F)cc1)c1ccc(Br)cc1` [Example 1-3, (3R,4R)-4-(4-bromophenyl)-5-(4-fluorophenyl)-N-hydroxy-3-methoxypentanamide] stands 9.36 nM; under `CCO[C@H](CC(=O)NO)[C@H](Cc1ccc(Cl)cc1)c1ccccc1` [Example 3-1, (3R,4R)-5-(4-chlorophenyl)-3-ethoxy-N-hydroxy-4-phenylpentanamide], 15.5 nM; under `CCO[C@H](CC(=O)NO)[C@H](Cc1ccc(Cl)cc1)c1ccc(-c2ccncc2)cc1` [Example 3-30, (3R,4R)-5-(4-chlorophenyl)-3-ethoxy-N-hydroxy-4-(4-(pyridin-4-yl)phenyl)pentanamide], 4.5 nM.
The compound `CCO[C@H](CC(=O)NO)[C@H](Cc1ccc(Cl)cc1)c1ccc(F)cc1` [Example 6-3, (3R,4R)-5-(4-chlorophenyl)-3-ethoxy-4-(4-fluorophenyl)-N-hydroxypentanamide potassium salt] showed a Ki of 8.9 nM.
The result for `CCO[C@H](CC(=O)NO)[C@H](Cc1ccc(Cl)cc1)c1ccc(F)cc1F` [Example 6-11, (3R,4R)-5-(4-chlorophenyl)-4-(2,4-difluorophenyl)-3-ethoxy-N-hydroxypentanamide] reads 10.3 nM; that for `CO[C@H](CC(=O)NO)[C@H](Cc1ccc(Cl)cc1)c1ccc(Br)cc1` [Example 3-8, (3R,4R)-4-(4-bromophenyl)-5-(4-chlorophenyl)-N-hydroxy-3-methoxypentanamide], 1.75 nM; that for `CO[C@H](CC(=O)NO)[C@H](Cc1ccc(Cl)cc1)c1ccc(C(=O)N2CCCCC2)cc1` [Example 4-7, (3R,4R)-5-(4-chlorophenyl)-N-hydroxy-3-methoxy-4-(4-(piperidine-1-carbonyl)phenyl)pentanamide], 5.5 nM.
Take `CCO[C@H](CC(=O)NO)[C@H](Cc1ccc(Cl)cc1)c1ccc(Cl)c(Br)c1` [Example 6-24, (3R,4R)-4-(3-bromo-4-chlorophenyl)-5-(4-chlorophenyl)-3-ethoxy-N-hydroxypentanamide]: the inhibition constant (Ki) was determined as 8.1 nM.
The result for `CCO[C@H](CC(=O)NO)[C@H](Cc1ccc(Cl)cc1)c1ccc(Br)cc1` [Example 3-6, (3R,4R)-4-(4-bromophenyl)-5-(4-chlorophenyl)-3-ethoxy-N-hydroxypentanamide] reads 2 ± 0.42 nM; that for `CO[C@H](CC(=O)NO)[C@H](Cc1ccc(Cl)cc1)c1ccc(F)cc1` [Example 3-5, (3R,4R)-5-(4-chlorophenyl)-4-(4-fluorophenyl)-N-hydroxy-3-methoxypentanamide], 5.2 nM; that for `CO[C@H](CC(=O)NO)[C@H](Cc1ccc(Cl)cc1)c1ccc(F)cc1F` [Example 6-20, (3R,4R)-5-(4-chlorophenyl)-4-(2,4-difluorophenyl)-N-hydroxy-3-methoxypentanamide potassium salt], 8.3 nM.
Consider `CCO[C@H](CC(=O)NO)[C@H](Cc1ccc(Cl)cc1)c1ccc(N2CCNCC2)cc1` [Example 3-22, (3R,4R)-5-(4-chlorophenyl)-3-ethoxy-N-hydroxy-4-(4-(piperazin-1-yl)phenyl)pentanamide], for which the Ki is 13.5 nM.
In turn, `COCCO[C@H](CC(=O)NO)[C@H](Cc1ccc(Cl)cc1)c1ccc(F)cc1F` [Example 6-14, (3R,4R)-5-(4-chlorophenyl)-4-(2,4-difluorophenyl)-N-hydroxy-3-(2-methoxyethoxy)pentanamide] showed an inhibitory constant (Ki) of 55.1 nM. Against the preceding compound, the Ki is about 4.1-fold higher.
Under `CCO[C@H](CC(=O)NO)[C@H](Cc1ccc(Cl)cc1)c1ccc(C(=O)N2CCOCC2)cc1` [Example 4-5, (3R,4R)-5-(4-chlorophenyl)-3-ethoxy-N-hydroxy-4-(4-(morpholine-4-carbonyl)phenyl)pentanamide] stands 5.8 ± 1.1 nM; under `CO[C@H](CC(=O)NO)[C@H](Cc1ccc(Cl)cc1)c1ccc(C(=O)N2CCOCC2)cc1` [Example 4-6, (3R,4R)-5-(4-chlorophenyl)-N-hydroxy-3-methoxy-4-(4-(morpholine-4-carbonyl)phenyl)pentanamide], 11.4 nM.
Under `NCCCO[C@H](CC(=O)NO)[C@H](Cc1ccc(Cl)cc1)c1ccc(F)cc1F` [Example 6-26, (3R,4R)-3-(3-aminopropoxy)-5-(4-chlorophenyl)-4-(2,4-difluorophenyl)-N-hydroxypentanamide] stands 55000 nM; under `CO[C@H](CC(=O)NO)[C@H](Cc1ccc(Cl)cc1)c1ccc(F)cc1` [Example 6-2, (3R,4R)-5-(4-chlorophenyl)-4-(4-fluorophenyl)-N-hydroxy-3-methoxypentanamide potassium salt], 13 nM.
Under `CCO[C@H](CC(=O)NO)[C@H](Cc1ccc(Cl)cc1)c1ccc(Cl)c(N2CCOCC2)c1` [Example 6-9, (3R,4R)-4-(4-chloro-3-morpholinophenyl)-5-(4-chlorophenyl)-3-ethoxy-N-hydroxypentanamide] stands 5.8 nM.
Compound `CO[C@H](CC(=O)NO)[C@H](Cc1ccc(Cl)cc1C)c1ccc(Br)cc1F` [Example 6-23, (3R,4R)-4-(4-bromo-2-fluorophenyl)-5-(4-chloro-2-methylphenyl)-N-hydroxy-3-methoxypentanamide] displayed a Ki of 1.94 nM.
The result for `O=C(CC[C@H](Cc1ccc(Cl)cc1)c1ccccc1)NO` [Example 3-2] reads 2700 nM; that for `CO[C@H](CC(=O)NO)[C@H](Cc1ccc(Cl)cc1)c1ccc(C(=O)N(C)C)cc1` [Example 6-7, 4-((2R,3R)-1-(4-chlorophenyl)-5-(hydroxyamino)-3-methoxy-5-oxopentan-2-yl)-N,N-dimethylbenzamide], 26.2 nM; that for `O=C(CC[C@H](Cc1ccc(Cl)cc1)c1ccc(Br)cc1)NO` [Example 3-3], 915 nM.

The record behind these values is US9505710B2 (priority 2015, dated 2016).
